What was measured:
Mus musculus [1] = assay: Toxicity in mouse allografted with mouse P388 cells at 2.9 mg/kg, ip; format: organism-based; design: dose 2.9 mg/kg, route intraperitoneal; conditions: in vivo
P388 [2] = assay: Antitumor activity against mouse P388 cells allografted in ip dosed mouse assessed as optimal dose; format: functional
P388 [3] = assay: Antitumor activity against mouse P388 cells allografted in mouse assessed as average survival time at 2.9 mg/kg, ip relative to untreated control; format: functional; conditions: route intraperitoneal
L1210 [4] = assay: Antitumor activity against mouse L1210 cells allografted in mouse assessed as average survival time at 6.6 mg/kg, ip relative to untreated control; format: functional; conditions: route intraperitoneal
Mus musculus [5] = assay: Toxicity in mouse allografted with mouse P388 cells at 6.6 mg/kg, ip; format: organism-based; design: dose 6.6 mg/kg, route intraperitoneal; conditions: in vivo
L1210 [6] = assay: Antitumor activity against mouse L1210 cells allografted in mouse assessed as average survival time at 4.4 mg/kg, ip relative to untreated control; format: functional; conditions: route intraperitoneal
L1210 [7] = assay: Antitumor activity against mouse L1210 cells allografted in mouse assessed as average survival time at 10 mg/kg, ip relative to untreated control; format: functional; conditions: route intraperitoneal
P388 [8] = assay: Antitumor activity against mouse P388 cells allografted in mouse assessed as average survival time at 6.6 mg/kg, ip relative to untreated control; format: functional; conditions: route intraperitoneal
Mus musculus [9] = assay: Toxicity in mouse allografted with mouse P388 cells at 20 mg/kg, ip; format: organism-based; design: dose 20 mg/kg, route intraperitoneal; conditions: in vivo
P388 [10] = assay: Antitumor activity against mouse P388 cells allografted in mouse assessed as average survival time at 20 mg/kg, ip relative to untreated control; format: functional; conditions: route intraperitoneal
L1210 [11] = assay: Antitumor activity against mouse L1210 cells allografted in mouse assessed as average survival time at 22.5 mg/kg, ip relative to untreated control; format: functional; conditions: route intraperitoneal
L1210 [12] = assay: Antitumor activity against mouse L1210 cells allografted in mouse assessed as average survival time at 15 mg/kg, ip relative to untreated control; format: functional; conditions: route intraperitoneal
Mus musculus [13] = assay: Toxicity in mouse allografted with mouse P388 cells at 4.4 mg/kg, ip; format: organism-based; design: dose 4.4 mg/kg, route intraperitoneal; conditions: in vivo
P388 [14] = assay: Antitumor activity against mouse P388 cells allografted in mouse assessed as average survival time at 4.4 mg/kg, ip relative to untreated control; format: functional; conditions: route intraperitoneal

Row | Structure (SMILES) | Activity (Mus musculus [1]) | Optimal dose (P388 [2]) | T/C (P388 [3]) | T/C (L1210 [4]) | T/C (L1210 [6]) | T/C (L1210 [7]) | also measured
1 | COc1cccc2c1C(=O)c1c(O)c3c(c(O)c1C2=O)C[C@@](O)(C(C)=O)C[C@@H]3O[C@H]1C[C@H](N)[C@H](OC)[C@H](C)O1 | Non-toxic | 2.9 mg/kg | 156% |  |  |  | 
2 | COc1cccc2c1C(=O)c1c(O)c3c(c(O)c1C2=O)C[C@@](O)(C(=O)CO)C[C@@H]3O[C@H]1C[C@H](N)[C@H](OC)[C@H](C)O1 |  | 6.6 mg/kg |  | 231% | 287% | 62% | Activity (Mus musculus [5]): Non-toxic; T/C (P388 [8]): 270%
3 | COc1cccc2c1C(=O)c1c(O)c3c(c(O)c1C2=O)C[C@@](O)(C(C)=O)C[C@@H]3O[C@H]1C[C@H](N)[C@@H](OC)[C@H](C)O1 |  | 20 mg/kg |  |  |  |  | Activity (Mus musculus [9]): Non-toxic; T/C (P388 [10]): 174%
4 | COc1cccc2c1C(=O)c1c(O)c3c(c(O)c1C2=O)C[C@@](O)(C(=O)CO)C[C@@H]3O[C@H]1C[C@H](N)[C@@H](OC)[C@H](C)O1 |  |  |  | 169% |  | 187% | T/C (L1210 [11]): 87%; T/C (L1210 [12]): 181%
5 | COc1cccc2c1C(=O)c1c(O)c3c(c(O)c1C2=O)C[C@@](O)(C(C)=O)C[C@@H]3O[C@H]1C[C@H](N)[C@H](O)[C@H](C)O1 [DAUNORUBICIN] | Non-toxic | 2.9 mg/kg | 169% |  |  |  | 
6 | COc1cccc2c1C(=O)c1c(O)c3c(c(O)c1C2=O)C[C@@](O)(C(=O)CO)C[C@@H]3O[C@H]1C[C@H](N)[C@H](O)[C@H](C)O1 [DOXORUBICIN] |  | 4.4 mg/kg |  | 175% | 169% | 187% | Activity (Mus musculus [13]): Non-toxic; T/C (P388 [14]): 254%

Reference: ChEMBL document CHEMBL3227963, “Synthesis and antitumor activity of 4'-O-methyldaunorubicin, 4'-O-methyladriamycin, and their 4'-epi analogues” (J Med Chem, 1979)
